In ChEMBL document CHEMBL1909559, “Design, synthesis, and biological evaluation of benzodiazepine-based SUMO-specific protease 1 inhibitors” (Bioorg Med Chem Lett, 2011):

Tested on: PC-3
Assay: Cytotoxicity against human PC3 cells

SMILES	IC50 [µM]
O=CCN1C(=O)C(NC(=O)c2ccc(NC(=O)OCc3ccccc3)cc2)N=C(c2ccccc2)c2ccccc21 (stereo not drawn)	13
O=CCN1C(=O)C(NC(=O)c2cccc(NC(=O)OCc3ccccc3)c2)N=C(c2ccccc2)c2ccccc21 (stereo not drawn)	35.7

Biological target: T1, Sentrin-specific protease 1 (Homo sapiens, UniProt Q9P0U3)
T1 sequence (Q9P0U3 whole entry): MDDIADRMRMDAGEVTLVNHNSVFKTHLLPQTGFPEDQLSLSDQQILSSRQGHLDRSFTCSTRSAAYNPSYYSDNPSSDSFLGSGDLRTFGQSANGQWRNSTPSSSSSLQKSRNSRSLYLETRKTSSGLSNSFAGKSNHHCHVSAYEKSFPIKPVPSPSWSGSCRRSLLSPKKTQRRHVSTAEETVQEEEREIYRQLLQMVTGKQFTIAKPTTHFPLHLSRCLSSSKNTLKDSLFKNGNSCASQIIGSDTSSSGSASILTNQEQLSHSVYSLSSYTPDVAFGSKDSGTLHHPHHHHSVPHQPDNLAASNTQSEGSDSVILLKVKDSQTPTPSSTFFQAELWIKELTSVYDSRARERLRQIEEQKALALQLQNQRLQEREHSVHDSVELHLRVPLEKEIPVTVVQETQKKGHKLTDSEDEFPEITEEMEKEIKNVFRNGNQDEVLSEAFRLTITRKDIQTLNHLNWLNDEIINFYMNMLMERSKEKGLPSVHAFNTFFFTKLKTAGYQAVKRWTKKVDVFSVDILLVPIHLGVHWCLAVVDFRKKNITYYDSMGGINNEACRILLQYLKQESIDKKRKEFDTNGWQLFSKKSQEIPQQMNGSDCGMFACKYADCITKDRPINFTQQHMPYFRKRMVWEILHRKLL
Assay: Inhibition of histidine-tagged human SENP1 catalytic domain preincubated for 10 mins by SUMO-CHOP-PLA2 reporter fluorescence assay

SMILES	IC50 [µM]
CC(C)(C)OC(=O)Nc1ccc(C(=O)NC2N=C(c3ccccc3)c3ccccc3N(CC=O)C2=O)cc1 (stereo not drawn)	> 100
CC(C)(C)OC(=O)Nc1cccc(C(=O)NC2N=C(c3ccccc3)c3ccccc3N(CC=O)C2=O)c1 (stereo not drawn)	> 100
CC(=O)Nc1cccc(C(=O)NC2N=C(c3ccccc3)c3ccccc3N(CC=O)C2=O)c1 (stereo not drawn)	> 100
O=C(NC1N=C(c2ccccc2)c2ccccc2N(CCO)C1=O)OCc1ccccc1 (stereo not drawn)	> 100
O=CCCN1C(=O)C(NC(=O)OCc2ccccc2)N=C(c2ccccc2)c2ccccc21 (stereo not drawn)	> 100
O=CCN1C(=O)C(NC(=O)OCc2ccccc2)N=Cc2ccccc21 (stereo not drawn)	> 100
